From patent US20230263786A1, “MODULATION OF DRUG-DRUG INTERACTIONS OF VADADUSTAT” (Akebia Therapeutics, Inc., priority 2020, published 2023)
pIC50: −log10 of the molar value. Like-named read-outs stand apart in the source and are kept apart here.

What was measured:
human PHD1 = human PHD1 (Homo sapiens, UniProt Q96KS0); experiment: PHD inhibitory action, PHD1; type: biochemical; details: in vitro
[1] = Plasma protein binding, equilibrium dialysis; type: in vitro ADME; details: human, in vitro, read-out: human plasma protein binding rate
Excerpt: The human plasma protein binding rate of this drug was higher than 99% (in vitro, equilibrium dialysis).

[2] = [14C]-labeled Compound 1 650 mg metabolism and excretion; type: in vivo, human
Excerpt: Compound 1 is metabolized via UGT, mainly producing O-glucuronide conjugates.
The urinary excretion rate of this drug and acyl glucuronide is less than 1% of the total radioactivity.

CYP2B6 = biological target: T1, CYP2B6 (Homo sapiens, UniProt P20813); experiment: CYP2B6 inhibition in vitro; type: in vitro ADME
T1 sequence (P20813 1-491): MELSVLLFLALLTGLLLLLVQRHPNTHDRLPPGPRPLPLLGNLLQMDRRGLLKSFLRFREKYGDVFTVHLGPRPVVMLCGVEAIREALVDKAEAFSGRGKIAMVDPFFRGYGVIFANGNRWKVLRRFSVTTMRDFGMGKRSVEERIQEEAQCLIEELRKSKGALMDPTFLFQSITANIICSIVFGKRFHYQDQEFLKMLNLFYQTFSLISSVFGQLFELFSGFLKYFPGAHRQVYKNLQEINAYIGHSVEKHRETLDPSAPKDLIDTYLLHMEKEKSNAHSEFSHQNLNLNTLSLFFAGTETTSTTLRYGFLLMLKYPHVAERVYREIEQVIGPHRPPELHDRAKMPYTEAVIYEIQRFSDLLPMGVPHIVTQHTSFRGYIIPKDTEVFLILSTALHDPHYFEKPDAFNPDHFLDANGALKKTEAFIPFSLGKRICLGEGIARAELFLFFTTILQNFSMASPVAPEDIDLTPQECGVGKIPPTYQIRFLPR

[3] = Phase 1 oral iron interaction study, Cohort 1 (after meal): sodium ferrous citrate, ferric citrate hydrate; type: in vivo, human; details: for AUC(0-inf) / AUC(0-t) / Cmax / half-life: male, human, plasma, oral; for AUC(0-inf): read-out: AUC(0-inf), LS geometric mean; for AUC(0-t): read-out: AUC(0-last), LS geometric mean; for Cmax: read-out: Cmax, LS geometric mean; for half-life: read-out: t1/2, LS geometric mean (converted)
Excerpt: The study included 3 periods as follow: • Screening: performed within 4 weeks before the day of administration of the study drug. • Evaluation period: Cohort 1 was confined to the study site for 10-night, 11-day. Cohort 2 and Cohort 3 were confined to the study site for 7 nights and 8 days. • Post-administration tests: performed 3 days after administration of the last dose of the study drug.
In Cohort 1, 21 subjects were further randomized into 3 groups (7 subjects per group) and the evaluation period was divided into 3 periods during the study:
(§1) Administration of vadadustat tablets alone: after fasting for at least 10 hours, subjects would eat breakfast over a period of 10 minutes, then immediately after finishing the meal (5 minutes after finishing the meal), 1 vadadustat tablet (150 mg) would be taken orally with 200 mL of water (extra water may be drunk if more is needed when taking the tablet, and the extra volume would be recorded). After breakfast, subjects would fast until the end of the collection of blood samples at 4 hours after administration of the study drug. Subjects would eat lunch over a period of 20 minutes after blood samples were collected at 4 hours after administration of the study drug. After lunch, subjects would fast until dinner, when they would eat dinner over a period of 20 minutes at 10 hours after administration of the study drug. Subjects would fast from dinner until breakfast the next morning.
as §1, with “and sodium ferrous citrate:” for “alone:”, “mg) and 4 tablets of sodium ferrous citrate (containing 200 mg of iron)” for “mg)”, “tablets,” for “tablet,”
Administration of vadadustat tablets and ferric citrate hydrate: after fasting for at least 10 hours, subjects would eat breakfast over a period of 10 minutes, then immediately after finishing the meal (5 minutes after finishing the meal), 1 vadadustat tablet (150 mg) and 8 tablets of ferric citrate hydrate (containing 2000 mg of ferric citrate) would be taken orally with 200 mL of water (extra water may be drunk if more is needed when taking the tablets, and the extra volume will be recorded). After breakfast, subjects would fast until the end of the collection of blood samples at 4 hours after administration of the study drug. After collection of blood samples at 4 hours after administration of the study drug, subjects would eat lunch over a period of 20 minutes, then immediately after finishing the meal, 8 tablets of ferric citrate hydrate (containing 2000 mg of ferric citrate) would be taken orally with 200 mL of water (extra water may be drunk if more is needed when taking the tablet, and the extra volume would be recorded). Subjects would fast from lunch to before dinner, and at 10 hours after administration of the study drug, subjects will eat dinner over a period of 20 minutes, then immediately after finishing the meal, 8 tablets of ferric citrate hydrate (containing 2000 mg of ferric citrate) would be taken orally with 200 mL of water (extra water may be drunk if more is needed when taking the tablets, and the extra volume would be recorded). Subjects would fast from dinner until breakfast the next morning.

[4] = system: UGT1A1, UGT1A7, UGT1A8 and UGT1A9; experiment: UGT isoforms generating O-glucuronide in vitro; type: in vitro ADME, human
[5] = Phase I interaction study with statins and sulfasalazine: safety and tolerability; type: in vivo, human; details: taken alone or during treatment with rosuvastatin, pravastatin, atorvastatin, or simvastatin
Protocol: The pharmacokinetic (pK) parameters and safety of said drugs administered alone and in combination with Compound 1 were characterized.
Safety and Tolerability. Subject safety were evaluated throughout the study beginning on Day 1 (Baseline) until 30 days (±2 days) post last dose. The following safety assessments were performed: physical exam, 12-lead ECG (electrocardiogram), vital signs, clinical laboratory results, QuantiFERON®-TB Test, serology, and pregnancy. Adverse events (AE) were summarized.

[6] = Phase I ferrous sulfate tablet interaction study;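 note: crossover in fasted human subjects with four-day washout between periods, plasma glucuronide metabolite pharmacokinetics, ratios computed as metabolite over parent for AUC and Cmax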
Protocol: Pharmacokinetics. […] The ratio of metabolite to parent was calculated for each glucuronide metabolite for AUC(0-t); and AUC(0-inf) and Cmax.
Comparative Bioavailability. […] Factors incorporated in the model included: Sequence, Subject (Sequence), Period, and Treatment.
Treatment of Subjects. […] All subjects are dosed on the same day for Day 1 of Confinement Period 1, and are crossed over to the alternate treatment and are dosed on the same day for Day 1 of Confinement Period 2. Both treatments are administered in a fasted state, and a four-day Washout Period separates each Confinement Period.

[7] = 150 mg with ferric citrate hydrate (2000 mg ferric citrate)
[8] = 150 mg with sodium ferrous citrate (200 mg iron)
[9] = 150 mg, Compound 1 150 mg alone
[10] = Compound 1+Iron compared to Compound 1 alone

human PHD1, sequence (Q96KS0 whole entry): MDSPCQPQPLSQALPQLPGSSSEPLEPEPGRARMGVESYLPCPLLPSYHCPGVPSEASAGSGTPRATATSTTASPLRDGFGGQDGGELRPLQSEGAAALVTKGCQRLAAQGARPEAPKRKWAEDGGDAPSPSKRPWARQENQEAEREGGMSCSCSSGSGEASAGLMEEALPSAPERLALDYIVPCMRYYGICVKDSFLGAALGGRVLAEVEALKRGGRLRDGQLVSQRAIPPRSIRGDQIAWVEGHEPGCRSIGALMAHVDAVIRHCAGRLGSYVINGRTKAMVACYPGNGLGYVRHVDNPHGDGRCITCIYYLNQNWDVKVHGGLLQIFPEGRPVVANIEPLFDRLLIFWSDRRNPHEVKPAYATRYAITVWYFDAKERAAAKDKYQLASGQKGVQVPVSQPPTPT

O=C(O)CNC(=O)c1ncc(-c2cccc(Cl)c2)cc1O [Compound 1, {[5-(3-chlorophenyl)-3-hydroxypyridine-2-carbonyl]amino}acetic acid]
pIC50 (human PHD1): 7.81 | fraction unbound [1]: < 0.01 | total radioactivity administered found in urine ([2]; single 650 mg [14C]-labeled, by 72 hours after administration): 58.9% | share of the total radioactivity (AUC0-∞) in plasma ([2]; single oral 650 mg [14C]-labeled Compound 1, healthy adult males): 75% | inhibitory effect on CYP2B6 (CYP2B6): inhibitory effect | Kel, LS geometric mean [3, 7]: 0.16 h⁻¹ | Kel, LS geometric mean [3, 8]: 0.13 h⁻¹ | Kel, LS geometric mean ([3]; Compound 1 150 mg alone): 0.13 h⁻¹ | AUC(0-inf) [3, 7]: 32400 ng·h/mL | AUC(0-t) [3, 7]: 31100 ng·h/mL | Cmax [3, 7]: 5180 ng/mL | half-life [3, 7]: 256 min | AUC(0-inf) [3, 8]: 46600 ng·h/mL | AUC(0-t) [3, 8]: 44400 ng·h/mL | Cmax [3, 8]: 6960 ng/mL | half-life [3, 8]: 320 min | AUC(0-inf) [3, 9]: 104000 ng·h/mL | AUC(0-t) [3, 9]: 99200 ng·h/mL | Cmax [3, 9]: 14300 ng/mL | half-life [3, 9]: 319 min | UGT isoforms involved in the generation of O-glucuronide [4]: UGT1A1, UGT1A7, UGT1A8 and UGT1A9 | tolerability [5]: well tolerated | lowering of Cmax [6, 10]: approximately 51% | lowering of mean plasma AUC (AUC0-t and AUC0-inf) [6, 10]: approximately 54% | AEs, SAEs, deaths ([6]; single 450 mg dose with or without ferrous sulfate): no AEs, SAEs, or deaths
